We go through 41 compounds from publication PMC12524796, “Discovery of Galloyl–Flavonoid Conjugates as SARS-CoV-2 3CL^pro Inhibitors: Understanding Binding Interactions Through Computational Approaches” (International Journal of Molecular Sciences, 2025).

The target in test [1] is T1, SARS-CoV-2 3CL^pro (Severe acute respiratory syndrome coronavirus 2, UniProt P0DTD1). In words: biochemical. The class given is biochemical. The conditions noted are these: for inhibition at 100 µM: read-out: SARS-CoV-2 3CL^pro Inhibition 100 µM (%).
For test [2], the target named is T1, SARS-CoV-2 3CL^pro. The arrangement: method as in PMID 38277124.
In test [3] the test system is 3CL^pro. The arrangement: method as in PMID 32272481. The conditions noted are these: read-out: IC50 against 3CL^pro; cited from earlier work.
The mark [4] stands for this setting: FRET assay, read-out: SARS-CoV-2 3CL^pro Inhibition IC50.
[5] abbreviates: 100 µM compound; values marked footnote 3; cited from earlier work.
The mark [6] stands for this setting: read-out: SARS-CoV-2 3CL^pro Inhibition IC50; values marked footnote 3; cited from earlier work.
[7] abbreviates: values marked footnote 3; read-out: SARS-CoV-2 3CL^pro Inhibition IC50; cited from earlier work.

Where two headings read alike, the source gives them in different places.

For `COc1cc(OC(=O)c2cc(O)c(O)c(O)c2)cc(O)c1C(=O)/C=C/c1ccccc1` [Compound 38, 4′-O-galloylcardamonin], the inhibition at 100 µM in test [1] (100 µM compound, FRET assay) is over 99%. Besides, the IC50 in test [1] (setting [4]) turned out to be 13.3 µM. Consider `COc1cc(OC(=O)c2cc(O)c(O)c(O)c2)c2c(=O)cc(-c3ccccc3)oc2c1` [Compound 42, 5-O-galloyltectochrysin], for which the inhibition at 100 µM in test [1] (100 µM compound, FRET assay) is over 99%. In addition, in test [1] (setting [4]), the IC50 is 20.6 µM. `C=CC(=O)Oc1c(C)c(O)c(C(=O)/C=C/c2ccccc2)c(OC)c1C` [Compound 16, 4′-O-acryloyl-DMC]: the inhibition at 100 µM in test [1] is 52.9 ± 1.17%.

Turning to `COc1cc(OC(=O)c2cc(O)c(O)c(O)c2)c2c(c1)O[C@H](c1ccccc1)CC2=O` [Compound 31, 5-O-galloylpinostrobin], the inhibition at 100 µM in test [1] (100 µM compound, FRET assay) was over 99%. For the same compound, in test [1] (setting [4]), the IC50 came out at 7.42 µM. Also, in test [1] (versus parent compound), the “increase of 3CL^pro inhibitory activity compared with the parent compound” value is listed as “over 23 fold”. For `COc1cc2c(c(O)c1N)C(=O)C[C@@H](c1ccccc1)O2` [Compound 26, 6-aminopinostrobin], in test [1] (100 µM compound, FRET assay), the inhibition at 100 µM is 14.7 ± 5.85%. Further, the IC50 in test [1] (setting [4]) is over 100 µM. The like results for `O=C(Oc1cc(O)c2c(c1)O[C@H](c1ccccc1)CC2=O)c1cc(O)c(O)c(O)c1` [Compound 36, 7-O-galloylpinocembrin] were, in that order, over 99% and 7.53 µM.

For `C=CC(=O)Oc1cc(O)c2c(=O)cc(-c3ccccc3)oc2c1` [Compound 20, 7-O-acryloylchrysin], in test [1], the inhibition at 100 µM came out at 84.01 ± 0.82%. Regarding `COc1cc(O)c2c(c1N)O[C@H](c1ccccc1)CC2=O` [Compound 25, 8-aminopinostrobin], the inhibition at 100 µM in test [1] (100 µM compound, FRET assay) was 38.2 ± 3.74%. Besides, in test [1] (setting [4]), the IC50 is over 100 µM.

On to `COc1cc(OC(=O)c2cc(OC(C)=O)c(OC(C)=O)c(OC(C)=O)c2)c2c(=O)cc(-c3ccccc3)oc2c1` [Compound 41, 5-O-(tri-O-acetylgalloyl)tectochrysin], for which, in test [1], the “inhibitory activity at 100 µM (in words)” value is reported as “moderate inhibitory activity” and the inhibition at 100 µM amounted to 72.8 ± 2.43%. As to `O=C(Oc1cc(O)c2c(=O)cc(-c3ccccc3)oc2c1)c1cc(O)c(O)c(O)c1` [Compound 44, 7-O-galloylchrysin], the inhibition at 100 µM in test [1] (100 µM compound, FRET assay) was over 99%. The IC50 in test [1] (setting [4]) turned out to be 9.26 µM. On to `COc1cc(OC(=O)c2cc(OC(C)=O)c(OC(C)=O)c(OC(C)=O)c2)c2c(c1)O[C@H](c1ccccc1)CC2=O` [Compound 30, 5-O-(tri-O-acetylgalloyl)pinostrobin], for which, in test [1], the “inhibitory activity at 100 µM (in words)” value is “moderate inhibitory activity” and the inhibition at 100 µM was determined as 67.1 ± 2.93%. In the case of `COc1cc2c(c(O)c1[N+](=O)[O-])C(=O)C[C@@H](c1ccccc1)O2` [Compound 23, 6-nitropinostrobin], the inhibition at 100 µM in test [1] was 53.5 ± 4.31%.

On to `COc1cc(O)c2c(c1)O[C@H](c1ccccc1)CC2=O` [Compound 6, pinostrobin], for which the “SARS-CoV-2 3CL^pro Inhibition 100 µM (%)” value in test [2] (setting [5]) is 26.44 ± 2.32 ^3%. In addition, the IC50 in test [2] (setting [6]) is over 200 µM.

For the compound `O=C(Oc1cc(O)c2c(c1)O[C@H](c1ccccc1)CC2=O)c1ccccc1` [Compound 32, 7-O-benzoylpinocembrin], the inhibition at 100 µM in test [1] is 70.8 ± 2.72%. Consider `O=c1cc(-c2ccccc2)oc2cc(O)cc(O)c12` [Compound 11, chrysin], for which the “SARS-CoV-2 3CL^pro Inhibition 100 µM (%)” value in test [2] (setting [5]) is given as 87.73 ± 0.66 ^3%. The IC50 in test [2] (setting [7]) was 32.8 µM. `O=c1cc(-c2ccccc2)oc2cc(O)c(O)c(O)c12` [Compound 1, baicalein, reference compound]: the “SARS-CoV-2 3CL^pro Inhibition 100 µM (%)” value in test [2] (setting [5]) is recorded as 62.95 ± 3.10 ^3%. With `COc1cc(OC(=O)c2ccc(OC(C)=O)c(OC)c2)c2c(c1)O[C@H](c1ccccc1)CC2=O` [Compound 29, 5-O-(O-acetylvanilloyl)pinostrobin], the inhibition at 100 µM in test [1] worked out at 84.4 ± 3.91%. For `COc1c([N+](=O)[O-])c(O)c2c(c1[N+](=O)[O-])O[C@H](c1ccccc1)CC2=O` [Compound 24, 6,8-dinitropinostrobin], in test [1], the IC50 is over 100 µM and the inhibition at 100 µM worked out at 40 ± 3.27%. On to `COc1cc(O)c2c(=O)cc(-c3ccccc3)oc2c1` [Compound 10, tectochrysin], for which the “SARS-CoV-2 3CL^pro Inhibition 100 µM (%)” value in test [2] (setting [5]) was 86.39 ± 0.19 ^3%. Besides, the IC50 in test [2] (setting [6]) was 24 µM. Consider `CC(=O)Oc1ccccc1C(=O)Oc1cc(O)c2c(c1)O[C@H](c1ccccc1)CC2=O` [Compound 33, 7-O-(O-acetylsalicyloyl)pinocembrin], for which, in test [1], the inhibition at 100 µM is 81.7 ± 0.89%.

On to `C=CC(=O)Oc1cc(OC(=O)C=C)c2c(=O)cc(-c3ccccc3)oc2c1` [Compound 21, 5,7-O-diacryloylchrysin], for which, in test [1] (100 µM compound, FRET assay), the inhibition at 100 µM was found to be 32.3 ± 4.83%. In test [1] (setting [4]), the IC50 was over 100 µM. Regarding `COc1cc(OC(=O)c2cc(OC(C)=O)c(OC(C)=O)c(OC(C)=O)c2)cc(O)c1C(=O)/C=C/c1ccccc1` [Compound 37, 4′-O-(tri-O-acetylgalloyl)cardamonin], in test [1], the “inhibitory activity at 100 µM (in words)” value is given as “moderate inhibitory activity” and the inhibition at 100 µM is 87.2 ± 3.25%. For `C=CC(=O)Oc1cc(O)c2c(c1)O[C@H](c1ccccc1)CC2=O` [Compound 13, 7-O-acryloylpinocembrin], the inhibition at 100 µM in test [1] worked out at 79.2 ± 1.52%.

Regarding `CC(=O)Oc1cc(C(=O)Oc2cc(O)c3c(=O)cc(-c4ccccc4)oc3c2)cc(OC(C)=O)c1OC(C)=O` [Compound 43, 7-O-(tri-O-acetylgalloyl)chrysin], in test [1], the “inhibitory activity at 100 µM (in words)” value is “moderate inhibitory activity” and the inhibition at 100 µM came out at 85.75 ± 0.48%. As to `O=C(O)c1cc(O)c(O)c(O)c1` [gallic acid, reference compound], in test [1], the IC50 was over 100 µM and the inhibition at 100 µM came out at 1.72 ± 12.1%. On to `COc1cc(OC(=O)c2ccccc2)c2c(c1)O[C@H](c1ccccc1)CC2=O` [Compound 27, 5-O-benzoylpinostrobin], for which the inhibition at 100 µM in test [1] (100 µM compound, FRET assay) was determined as 43.4 ± 3.99%. In addition, the IC50 in test [1] (setting [4]) is over 100 µM. Take `C=CC(=O)Oc1cc(O)c(C(=O)/C=C/c2ccccc2)c(OC)c1` [Compound 15, 4′-O-acryloylcardamonin]: the inhibition at 100 µM in test [1] turned out to be 66.6 ± 2.05%. As for `O=C1C[C@@H](c2ccccc2)Oc2cc(O)cc(O)c21` [Compound 7, pinocembrin], in test [2] (setting [5]), the “SARS-CoV-2 3CL^pro Inhibition 100 µM (%)” value is reported as 27.18 ± 2.20 ^3%. Besides, the IC50 in test [2] (setting [6]) is over 200 µM. For the compound `COc1cc(C(=O)Oc2cc(O)c3c(c2)O[C@H](c2ccccc2)CC3=O)ccc1OC(C)=O` [Compound 34, 7-O-(O-acetylvanilloyl)pinocembrin], the inhibition at 100 µM in test [1] was determined as 83.7 ± 3.37%. Take `COc1c(C)c(OC(=O)c2cc(O)c(O)c(O)c2)c(C)c(O)c1C(=O)/C=C/c1ccccc1` [Compound 40, 4′-O-galloyl-DMC]: in test [1] (100 µM compound, FRET assay), the inhibition at 100 µM was over 99%. Further, the IC50 in test [1] (setting [4]) is 6.85 µM.

`C=CC(=O)Oc1cc(OC)c(C(=O)/C=C/c2ccccc2)c(OC(=O)C=C)c1` [Compound 17, 2′,4′-O-diacryloylcardamonin]: the inhibition at 100 µM in test [1] came out at 76.8 ± 4.85%. `COc1c(C)c(OC(=O)c2cc(OC(C)=O)c(OC(C)=O)c(OC(C)=O)c2)c(C)c(O)c1C(=O)/C=C/c1ccccc1` [Compound 39, 4′-O-(tri-O-acetylgalloyl)-DMC]: in test [1], the “inhibitory activity at 100 µM (in words)” value is given as “moderate inhibitory activity” and the inhibition at 100 µM amounted to 72 ± 4.27%. For the compound `C=CC(=O)Oc1c(C)c(OC)c(C(=O)/C=C/c2ccccc2)c(OC(=O)C=C)c1C` [Compound 18, 2′,4′-O-diacryloyl-DMC], the inhibition at 100 µM in test [1] was 68 ± 3.77%. Turning to `CC(=O)Oc1cc(C(=O)Oc2cc(O)c3c(c2)O[C@H](c2ccccc2)CC3=O)cc(OC(C)=O)c1OC(C)=O` [Compound 35, 7-O-(tri-O-acetylgalloyl)pinocembrin], in test [1], the “inhibitory activity at 100 µM (in words)” value is given as “moderate inhibitory activity” and the inhibition at 100 µM came out at 73 ± 1.66%. For the compound `COc1cc(O)c2c(c1[N+](=O)[O-])O[C@H](c1ccccc1)CC2=O` [Compound 22, 8-nitropinostrobin], in test [1], the inhibition at 100 µM turned out to be 55 ± 3.96%.

As for `C=CC(=O)Oc1cc(OC(=O)C=C)c2c(c1)O[C@H](c1ccccc1)CC2=O` [Compound 14, 5,7-O-diacryloylpinocembrin], the inhibition at 100 µM in test [1] was 76.2 ± 0.97%. `COc1cc(OC(=O)c2ccccc2OC(C)=O)c2c(c1)O[C@H](c1ccccc1)CC2=O` [Compound 28, 5-O-(O-acetylsalicyloyl)pinostrobin]: in test [1], the inhibition at 100 µM came to 89.7 ± 5.92%.

Take `O=c1c2ccccc2[se]n1-c1ccccc1` [Ebselen]: the IC50 in test [3] was 0.67 µM. Consider `C=CC(=O)Oc1cc(OC)cc2oc(-c3ccccc3)cc(=O)c12` [Compound 19, 5-O-acryloyltectochrysin], for which the inhibition at 100 µM in test [1] (100 µM compound, FRET assay) was 37.2 ± 2.09%. For the same compound, the IC50 in test [1] (setting [4]) is over 100 µM. As to `COc1c(C)c(O)c(C)c(O)c1C(=O)/C=C/c1ccccc1` [Compound 9, dimethylcardamonin], the “SARS-CoV-2 3CL^pro Inhibition 100 µM (%)” value in test [2] (setting [5]) is reported as 84.59 ± 0.84 ^3%. Also, the IC50 in test [2] (setting [7]) was 27.5 µM. On to `COc1cc(O)cc(O)c1C(=O)/C=C/c1ccccc1` [Compound 8, cardamonin], for which, in test [2] (setting [5]), the “SARS-CoV-2 3CL^pro Inhibition 100 µM (%)” value is 85.60 ± 2.44 ^3%. Also, in test [2] (setting [6]), the IC50 was 57.4 µM.
